# Square brackets hold non-standard residues; d marks the D form. Ends that are not written are not given here.
# Test system: S. vaccaria PCY1
# Experiment: In vitro assay of recombinant S. vaccaria PCY1 with wild type and mutant presegetalin substrates, products detected by LC/MS
# Format: biochemical, Saponaria vaccaria
# Parameters: key to CP (cyclic peptide product detected by LC/MS after in vitro assay) / LP (linear peptide product detected by LC/MS after in vitro assay): +=presence; −=absence
# Conditions: for CP (cyclic peptide product detected by LC/MS after in vitro assay) / LP (linear peptide product detected by LC/MS after in vitro assay): substrates tested for cyclization by S. vaccaria PCY1; for cyclic peptide production by S. vaccaria PCY1 (in words) / linear peptide production by S. vaccaria PCY1 (in words): LC/MS and MS/MS
# Procedure: The gene corresponding to S. vaccaria PCY1 was cloned and expressed in E. coli with a His-tag. HisPur Cobalt Resin™ (Thermo Scientific) was used for purification of recombinant PCY1. The purified PCY1 was quantified using BCA method (Pierce; http://http://www.piercenet.com/) with BSA as a calibration standard. The in vitro assay contained 20 mM Tris buffer (pH 8.5), 100 mM NaCl, 5 mM DTT, 0.2 mg BSA, and 1.5 μg of substrates (wild type and mutant presegetalins, procured from Bio Basic Inc with >90% purity) and was initiated by the addition of 0.3 μg of PCY1, in a total reaction volume of 100 μl. The assay was incubated at 30° C. for up to 1 h and stopped by placing reactions in dry ice. The assays were lyophilized, re-suspended in methanol, evaporated and re-suspended in 50:50 v/v methanol/water for LC/MS analysis.
# Ion trap ESI+ LC/MS/MS analysis was used to detect production of cyclic peptides using an Agilent 6320 Ion Trap LC/MS system under default Smart Parameter settings. The analyzer and ion optics were adjusted to achieve proper resolution (Agilent Installation Guide #G2440-90105) using the ESI Tuning Mix (Agilent #G2431A). The mass spectrometer scanned from 50 to 2200 mass units at 8100 mass units sec^−1 with an expected peak width of 0.35 atomic mass units. For auto MS/MS, the trap isolation width was 4 atomic mass units. The associated Agilent 1200 LC was fitted with a Zorbax 300 EXTEND-C18 column (150×2.1 mm, 3.5 μm particle size) maintained at 35° C. The binary solvent system consisted of 90:10 v/v water/acetonitrile containing 0.1% formic acid and 0.1% ammonium formate (solvent A) and 10:90 v/v water/acetonitrile containing 0.1% formic acid and 0.1% ammonium formate (solvent B). The separation gradient was 90:10 A/B to 50:50 A/B in 3 ml over 20 min.
# In order to characterize substrate specificity of PCY1 and understand the segetalin A biosynthetic mechanism, a total of 44 substrates (Table 3) were tested for the PCY1 activity and the results are briefly summarized in Table 3. The last two columns in Table 3 summarize product type detected by LC/MS after in vitro assays (CP is cyclic peptide and LP is linear peptide, +=presence, −=absence, NA=not applicable). The 44 substrates were classified as follows: • (A) Presegetalin A1 [14,32], a wild type (WT) precursor of segetalin A • (B) Truncated mutants of presegetalin A1[14,32] • (C) Alanine scanning mutants corresponding to variants of the mature segetalin A sequence • (D) Alanine scanning mutants of the C-terminal region of presegetalin A1[14,32] • (E) D-amino acid mutants corresponding to variants of the mature segetalin A sequence • (F) Insertion mutants corresponding to variants of the mature segetalin A sequence • (G) Other A-class and F-class presegetalins • (H) Putative cyclic peptide precursors from Dianthus caryophyllus
# Chain of S. vaccaria PCY1 (as listed by the source): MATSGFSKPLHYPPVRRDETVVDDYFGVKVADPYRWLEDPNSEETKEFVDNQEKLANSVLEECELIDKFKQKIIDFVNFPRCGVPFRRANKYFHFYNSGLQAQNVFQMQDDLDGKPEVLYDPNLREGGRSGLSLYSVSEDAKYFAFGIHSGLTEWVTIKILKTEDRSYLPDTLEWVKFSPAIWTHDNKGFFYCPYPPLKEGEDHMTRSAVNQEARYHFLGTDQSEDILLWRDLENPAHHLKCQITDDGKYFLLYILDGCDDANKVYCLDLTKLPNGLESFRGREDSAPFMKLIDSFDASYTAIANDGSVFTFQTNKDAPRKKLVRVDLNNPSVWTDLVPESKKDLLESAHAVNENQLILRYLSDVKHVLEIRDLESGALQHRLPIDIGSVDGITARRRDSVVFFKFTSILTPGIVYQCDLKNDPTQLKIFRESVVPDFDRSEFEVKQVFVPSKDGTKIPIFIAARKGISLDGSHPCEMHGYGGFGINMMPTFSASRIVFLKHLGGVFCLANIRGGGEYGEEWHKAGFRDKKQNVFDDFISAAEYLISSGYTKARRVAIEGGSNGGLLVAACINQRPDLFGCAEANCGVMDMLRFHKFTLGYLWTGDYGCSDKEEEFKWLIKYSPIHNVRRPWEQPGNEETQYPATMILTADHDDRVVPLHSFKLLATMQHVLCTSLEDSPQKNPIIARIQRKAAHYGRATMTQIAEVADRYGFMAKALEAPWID
Substance,CP (cyclic peptide product detected by LC/MS after in vitro assay),LP (linear peptide product detected by LC/MS after in vitro assay),cyclic peptide production by S. vaccaria PCY1 (in words),linear peptide production by S. vaccaria PCY1 (in words),"increase in segetalin A production relative to wild type presegetalin A1[14,32] (alanine scanning mutants of C-terminal region) [%]"
"25 (GVPVWAFQAKDVENASAPA; Presegetalin A1[14,32] V32A) [compound 25]",+,+,,,
"42 (FGTHGLPAPIQVPNGMDDACAPM; Presegetalin J1[14,36]) [compound 42]",+,−,cyclic peptide products were detected from all of them,,
"2 (GVPVWAFQAKDVENAPV; Presegetalin A1[14,30]) [compound 2]",,+,,almost equivalent to the linear peptide formed from the WT substrate,
"Presegetalin A1[14,32]W18w (GVPV[dW]AFQAKDVENASAPV) [No. 29]",,,relatively weakly converted to cyclic peptide,,
"17 (GVPVWAFQAKAVENASAPV; Presegetalin A1[14,32] D24A) [compound 17]",+,+,sensitive,,
30 (GVPVW[dA]FQAKDVENASAPV) [compound 30],−,−,neither cyclic peptide nor linear peptide were detected,neither cyclic peptide nor linear peptide were detected,
"41 (FSASYSSKPIQTQVSNGMDNASAPV; Presegetalin F1[14,38]) [compound 41]",+,−,cyclic peptide products were detected from all of them,,
"10 (GVPAWAFQAKDVENASAPV; Presegetalin A1[14,32] variant aa17 = alanine) [compound 10]",+,+,,,
"3 (GVPVWAFQAKDVENA; Presegetalin A1[14,28]) [compound 3]",−,+,,almost equivalent to the linear peptide formed from the WT substrate,
"22 (GVPVWAFQAKDVENAAAPV; Presegetalin A1[14,32] S29A) [compound 22]",+,+,relatively higher amounts of segetalin A than that produced from WT substrate,,30
27 (GV[dP]VWAFQAKDVENASAPV) [compound 27],+,−,,,
"20 (GVPVWAFQAKDVEAASAPV; Presegetalin A1[14,32] N27A) [compound 20]",+,+,sensitive,,
"8 (GAPVWAFQAKDVENASAPV; Presegetalin A1[14,32] variant aa15 = alanine) [compound 8]",+,+,,,
"43 (GPIPFYGFQAKDAENASVPV; - Dianthus Precursor A[14,33]) [compound 43]",+,−,small amount of cyclic peptide production,,
"4 (GVPVWAFQAKD; Presegetalin A1[14,24]) [compound 4]",−,+,,almost equivalent to the linear peptide formed from the WT substrate,
"19 (GVPVWAFQAKDVANASAPV; Presegetalin A1[14,32] E26A) [compound 19]",+,+,relatively higher amounts of segetalin A than that produced from WT substrate,,
28 (GVP[dV]WAFQAKDVENASAPV) [compound 28],+,−,,,
"13 (GVPVWAAQAKDVENASAPV; Presegetalin A1[14,32] F20A) [compound 13]",+,+,sensitive,,
"34 (GVPAAAVWAFQAKDVENASAPV; Presegetalin A1[14,32] ins 16AAA17) [compound 34]",+,+,produced the expected 9 amino acid cyclic peptide,linear peptide products,
"33 (GVPAVWAFQAKDVENASAPV; Presegetalin A1[14,32] ins 16A17) [compound 33]",+,+,both detected,both detected,
"5 (GVPVWAF; Presegetalin A1[14,20]) [compound 5]",−,−,,,
"23 (GVPVWAFQAKDVENASVPV; Presegetalin A1[14,32] A30V) [compound 23]",+,+,,,
"9 (GVAVWAFQAKDVENASAPV; Presegetalin A1[14,32] variant aa16 = alanine) [compound 9]",+,+,,,
"40 (GLPGWPFQAKDVENASAPV; Presegetalin L1[14,32]) [compound 40]",+,−,cyclic peptide products were detected from all of them,,
"38 (GVKYAFQPKDSENASAPV; Presegetalin G1[14,31]) [compound 38]",+,−,cyclic peptide products were detected from all of them,,
29 (GVPV[dW]AFQAKDVENASAPV) [compound 29],+,+,,,
"37 (GLSFAFQAKDAENASSPV; Presegetalin D1[14,31] P20Q) [compound 37]",+,−,resulted in a 5 amino acid cyclic peptide product,,
26 (G[dV]PVWAFQAKDVENASAPV) [compound 26],+,+,,,
